For this test, the target named is T1, human 5-HT5A receptor (Homo sapiens, UniProt P47898).
T1 construct: expressed in transfected cells; membranes used
T1 sequence (P47898 whole entry): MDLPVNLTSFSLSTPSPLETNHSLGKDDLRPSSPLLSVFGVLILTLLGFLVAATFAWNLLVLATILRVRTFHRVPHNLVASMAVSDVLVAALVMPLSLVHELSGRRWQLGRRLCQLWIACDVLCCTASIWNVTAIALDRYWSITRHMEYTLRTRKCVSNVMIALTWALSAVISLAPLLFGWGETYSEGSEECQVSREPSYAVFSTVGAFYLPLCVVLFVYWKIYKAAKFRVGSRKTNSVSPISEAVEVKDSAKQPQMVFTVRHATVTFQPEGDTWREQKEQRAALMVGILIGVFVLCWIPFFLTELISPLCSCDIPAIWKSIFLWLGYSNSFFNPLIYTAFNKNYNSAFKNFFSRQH
Briefly: Test on a human 5-HT5A receptor binding inhibition ([3H]5-CT). To be noted: membrane from HEK293 cells for forced expression of human 5-HT5A receptor; Ki calculated from IC50 and Kd of [3H]5-CT (4.95 nM). The procedure:
The ORF (open reading frame; protein coding region) of a human 5-HT5A receptor (Genbank AF498985) was cloned from a human hippocampus cDNA library, and then inserted into a pCR2.1 vector (Invitrogen), and Escherichia coli containing the plasmid was cultured in a large amount. Next, the full-length cDNA sequence of the human 5-HT5A receptor was analyzed, and recombined into a pcDNA3.1 vector (Invitrogen) as an expression vector and cultured in a large amount. HEK293 established cells (ATCC) derived from the human fetal kidney were seeded, the expression plasmid (1 μg) obtained above were added thereto with LIPOFECTAMINE 2000 (Invitrogen; 2 μl), the gene was transfected into HEK293 cells, and the expression cells were screened with a drug-resistant marker, Geneticin (G418 sulfate 500 μg/ml; Kanto Chemical Co., Inc.). Thus prepared recombinant cells which expressed the gene were cultured in a medium containing D-MEM (Dulbecco's modified eagle medium, Sigma), 10% FCS (Fetal calf serum: fetal bovine serum), 1% Pc./Sm (Penicillin/Streptomycin, Invitrogen), and 500 μg/ml G418 for 3 days. These experimental operations followed a manual for gene operation experiment and an instruction appended in a reagent, and the like, such as a known method (Sambrook, J. et al, Molecular Cloning-A Laboratory Manual”, Cold Spring Harabor laboratory, NY, 1989).
HEK293 cells for forced expressions of a human 5-HT5A receptor were cultured in a F500 plate, and scraped with a scraper. After centrifugation, the precipitate was collected, and an incubation buffer (50 mM Tris (HCl) (pH 7.4), 10 mM MgSO4, and 0.5 mM EDTA (ethylenediamine tetraacetic acid)) was added thereto. After homogenization, it was further centrifuged, and the incubation buffer was added to the precipitate, followed by thoroughly suspending. The operation was repeated, and protein concentration was measured, thereby completing preparation of the membrane.
A solution of the compound to be tested and 100 μM 5-CT (5-carboxamidetriptamine) in DMSO was added to a 96-well plate at 2 μl/well, suspended in an incubation buffer, and a membrane from HEK293 cells for forced expressions of a human 5-HT5A receptor prepared at 200 μg/ml was added at 100 μl/well. After incubation at room temperature for 15 minutes, a [^3H]5-CT solution (2 nM [^3H]5-CT, incubation buffer) was added thereto at 100 μl/well.
Separately, 100 μl of the solution was distributed into a liquid scintillation vial, and 2 ml of Aquasol II (registered trademark) was added thereto, followed by stirring. Then, radioactivity was measured by a liquid scintillation counter. It was incubated at 37° C. for 60 minutes. The reaction mixture was sucked into 96-well GF/C filter plate that had been pre-treated with 0.2% polyethyleneimine, and washed six times with an ice-cooled, 50 mM Tris (pH 7.5) buffer. The GF/C filter plate was dried.
Microscint TMPS (registered trademark) was added thereto at 40 μl/well. Radioactivity remaining on the GF/C filter plate was measured by a top counter.
The [^3H]5-CT binding inhibiting activity by the compound to be tested in each experiment was determined as an IC50 value with a radioactivity upon addition of DMSO alone being 0% inhibition, and a radioactivity upon addition of 1 μM 5-CT being 100% inhibition. Separately, Ki values were calculated from the Kd value of the [^3H]5-CT determined from Scatchard analysis, by the following equation.
Ki=IC50 (1+Concentraion of ligand added/Kd (4.95 nM))
Turning to `NC(N)=NC(=O)c1ccc2cccc(-c3cc(F)ccc3F)c2c1` [Example 68], the Ki is 0.3 to 3 nM.
Then `NC(N)=NC(=O)c1ccc2cccc(-c3cccc(Cl)c3F)c2c1` [Example 69], with 0.3 to 3 nM; and `NC(N)=NC(=O)c1ccc2cccc(-c3cc(Cl)ccc3F)c2c1` [Example 70], with 0.3 to 3 nM; and `NC(N)=NC(=O)c1ccc2cccc(-c3cccc(F)c3F)c2c1` [Example 71], with 0.3 to 3 nM.
Consider `COc1ccc(-c2cccc3ccc(C(=O)N=C(N)N)cc23)c(C#N)c1` [Example 72], for which the Ki was 3 to 30 nM.
Then `NC(N)=NC(=O)c1ccc2cccc(-c3cnccc3Cl)c2c1` [Example 73], with 0.3 to 3 nM; and `NC(N)=NC(=O)c1ccc2cccc(-c3cncc(Cl)c3)c2c1` [Example 74], with 3 to 30 nM.
Then `NC(N)=NC(=O)c1ccc2cccc(-c3cccc(Cl)c3Cl)c2c1` [Example 75], with 0.3 to 3 nM.
Then `NC(N)=NC(=O)c1ccc2cccc(-c3cc(Cl)ccc3Cl)c2c1` [Example 76], with 0.3 to 3 nM.
Turning to `NC(N)=NC(=O)c1ccc2cccc(-c3cccc(F)c3Cl)c2c1` [Example 77], the Ki was 0.3 to 3 nM.
With `NC(N)=NC(=O)c1ccc2cccc(-c3cc(F)ccc3Cl)c2c1` [Example 78], the Ki is 0.3 to 3 nM.
Then `Cn1nccc1-c1cccc2ccc(C(=O)N=C(N)N)cc12` [Example 79], with 3 to 30 nM.
Then `N#Cc1cccc(-c2cccc3ccc(C(=O)N=C(N)N)cc23)c1F` [Example 80], with 0.3 to 3 nM; and `N#Cc1ccc(F)c(-c2cccc3ccc(C(=O)N=C(N)N)cc23)c1` [Example 81], with 0.3 to 3 nM.
Then `COc1ccc(-c2cccc3ccc(C(=O)N=C(N)N)cc23)c(F)c1` [Example 82], with 0.3 to 3 nM; and `COc1cc(F)c(-c2cccc3ccc(C(=O)N=C(N)N)cc23)c(F)c1` [Example 83], with 0.3 to 3 nM.
With `NC(N)=NC(=O)c1ccc2cccc(-c3cc(Cl)cnc3F)c2c1` [Example 84], the Ki is 3 to 30 nM.
For the compound `N#Cc1c(Cl)cccc1-c1cccc2ccc(C(=O)N=C(N)N)cc12` [Example 85], the Ki was 0.3 to 3 nM.
Turning to `Cc1ccc(-c2cccc3ccc(C(=O)N=C(N)N)cc23)c(F)n1` [Example 86], the Ki was 3 to 30 nM.
Then `NC(N)=NC(=O)c1ccc2cccc(-c3ccccc3)c2c1` [Example 87], with 0.3 to 3 nM; and `NC(N)=NC(=O)c1ccc2cccc(-c3ccc(F)cc3)c2c1` [Example 88], with 0.3 to 3 nM.
Then `NC(N)=NC(=O)c1ccc2cccc(-c3ccc(Cl)cc3)c2c1` [Example 89], with 0.3 to 3 nM; and `COc1ccc(-c2cccc3ccc(C(=O)N=C(N)N)cc23)cc1` [Example 90], with 0.3 to 3 nM; and `Cn1ncc(Cl)c1-c1cccc2ccc(C(=O)N=C(N)N)cc12` [Example 91], with 3 to 30 nM.
For `NC(N)=NC(=O)c1ccc2cccc(-c3cccc4c3OCO4)c2c1` [Example 92], the Ki was 0.3 to 3 nM.
For `NC(N)=NC(=O)c1ccc2cccc(-c3ccccc3OC(F)F)c2c1` [Example 93], the Ki was 3 to 30 nM.
Then `NC(N)=NC(=O)c1ccc2cccc(-c3ccc(F)cc3OC(F)F)c2c1` [Example 94], with 3 to 30 nM; and `NC(N)=NC(=O)c1ccc2cccc(-c3cccc4c3OCC4)c2c1` [Example 95], with 0.3 to 3 nM; and `NC(N)=NC(=O)c1ccc2cccc(-c3cc(F)c(F)cc3F)c2c1` [Example 96], with 0.3 to 3 nM.
With `COc1ccc(-c2cccc3ccc(C(=O)N=C(N)N)cc23)cn1` [Example 97], the Ki was 3 to 30 nM.
Then `COc1ccncc1-c1cccc2ccc(C(=O)N=C(N)N)cc12` [Example 98], with 30 to 300 nM; and `COc1cccc(-c2cccc3ccc(C(=O)N=C(N)N)cc23)c1C#N` [Example 99], with 3 to 30 nM; and `Cc1ccncc1-c1cccc2ccc(C(=O)N=C(N)N)cc12` [Example 100], with 3 to 30 nM.
`NC(N)=NC(=O)c1ccc2cccc(-c3ccccc3-c3ccccc3)c2c1` [Example 101]: the Ki was 30 to 300 nM.
As for `NC(N)=NC(=O)c1ccc2cccc(-c3cccc4ccccc34)c2c1` [Example 102], the Ki is 3 to 30 nM.
Regarding `NC(N)=NC(=O)c1ccc2cccc(C3CC3)c2c1` [Example 103], the Ki is 3 to 30 nM.
With `NC(N)=NC(=O)c1ccc2cccc(-c3c(O)cccc3F)c2c1` [Example 104], the Ki was 0.3 to 3 nM.
Take `NC(N)=NC(=O)c1ccc2cccc(-c3cccc(F)c3O)c2c1` [Example 105]: the Ki was 0.3 to 3 nM.
Then `NC(N)=NC(=O)c1ccc2cccc(-c3cccc(O)c3F)c2c1` [Example 106], with 0.3 to 3 nM.
Then `NC(N)=NC(=O)c1ccc2cccc(-c3c(F)cccc3OC(F)F)c2c1` [Example 107], with 0.3 to 3 nM; and `NC(N)=NC(=O)c1ccc2cccc(-c3ncccc3Cl)c2c1` [Example 108], with 3 to 30 nM; and `NC(N)=NC(=O)c1ccc2cccc(-c3cccc4ncccc34)c2c1` [Example 109], with 0.3 to 3 nM.
For `NC(N)=NC(=O)c1ccc2ccc(Cl)c(-c3ccccc3F)c2c1` [Example 110], the Ki was 0.3 to 3 nM.
Then `COc1cncc(-c2cccc3ccc(C(=O)N=C(N)N)cc23)c1` [Example 111], with 30 to 300 nM; and `COc1cc(-c2cccc3ccc(C(=O)N=C(N)N)cc23)ccn1` [Example 112], with 3 to 30 nM; and `NC(N)=NC(=O)c1ccc2ccc(F)c(-c3ccncc3F)c2c1` [Example 113], with 0.3 to 3 nM.
Then `Cc1ccc2ccc(C(=O)N=C(N)N)cc2c1-c1ccncc1F` [Example 114], with 0.3 to 3 nM.
As for `NC(N)=NC(=O)c1ccc2cccc(-c3cccc4c3OC(F)(F)O4)c2c1` [Example 115], the Ki is 3 to 30 nM.
Then `NC(N)=NC(=O)c1ccc2cccc(-c3c(O)cccc3Cl)c2c1` [Example 116], with 0.3 to 3 nM; and `NC(N)=NC(=O)c1ccc2cccc(-c3c(O)ccc(F)c3F)c2c1` [Example 117], with 0.3 to 3 nM; and `NC(N)=NC(=O)c1ccc2cccc(-c3c(F)ccc(O)c3F)c2c1` [Example 118], with 0.3 to 3 nM.
Then `NC(N)=NC(=O)c1ccc2cccc(-c3c(F)ccc(O)c3Cl)c2c1` [Example 119], with 0.3 to 3 nM; and `COCc1cc(F)c(-c2cccc3ccc(C(=O)N=C(N)N)cc23)c(F)c1` [Example 120], with 3 to 30 nM; and `NC(N)=NC(=O)c1ccc2cccc(-c3c(F)cc(CO)cc3F)c2c1` [Example 121], with 0.3 to 3 nM.
As for `Cc1nc(-c2ccccc2)sc1-c1cccc2ccc(C(=O)N=C(N)N)cc12` [Example 122], the Ki was 3 to 30 nM.
For `NC(N)=NC(=O)c1ccc2cccc(-c3cccc4cccnc34)c2c1` [Example 123], the Ki is 3 to 30 nM.
Then `COc1ccccc1-c1c(Cl)ccc2ccc(C(=O)N=C(N)N)cc12` [Example 124], with 0.3 to 3 nM; and `N#Cc1ccc(-c2c(Cl)ccc3ccc(C(=O)N=C(N)N)cc23)cc1` [Example 125], with 0.3 to 3 nM.
Turning to `NC(N)=NC(=O)c1ccc2cccc(-c3ccc(F)c4c3C(=O)CC4)c2c1` [Example 126], the Ki is 30 to 300 nM.
Then `COc1c(F)cc(F)c(-c2cccc3ccc(C(=O)N=C(N)N)cc23)c1F` [Example 127], with 3 to 30 nM; and `NC(N)=NC(=O)c1ccc2cccc(-c3cccc4cnccc34)c2c1` [Example 128], with 0.3 to 3 nM.
